System: genes predictive for the anti-inflammatory macrolide effect
Test: Genes statistically predictive of Clari response: differentially expressed with Clari but not the inactive macrolides MAA or Josa (Appendix E)
Type: cell-based
Text: In the case of the above-mentioned (i) related to arachidonic acid biosynthesis, specifically, methods of the embodiment involve assaying whether a test macrolide alters biosynthesis of arachidonic acid, alters the expression or activities of enzymes involved in the biosynthesis or activation of arachidonic acid (e.g., arachidonic acid CoA synthetase, delta-6 desaturase, fatty acid elongase, and delta-5 desaturase, AA-related genes in Tables 2 and 3), or alters the expression of genes identified as predictive for the anti-inflammatory macrolide effect (Appendix E). Assays in which arachidonic acid or gene expression or enzymatic activity is detected can be carried out after contacting a cell with a test macrolide. Any cell line that secretes prostaglandin or produces arachidonic acid can be used. Epithelial and macrophages lines (e.g., A549 or THP-1) are suitable for this purpose; other cell lines can be identified by carrying out assays such as those described in the specific Examples, below. Alternatively, screening assays can be carried out after adding a test macrolide to an in vitro cell system (e.g., a cellular extract or liver microsome preparation) or an in vitro enzyme assay system.

CO[C@@H]1[C@@H](O[C@@H]2O[C@H](C)[C@@H](O[C@H]3C[C@@](C)(O)[C@@H](OC(=O)CC(C)C)[C@H](C)O3)[C@H](N(C)C)[C@H]2O)[C@@H](CC=O)C[C@@H](C)[C@@H](O)/C=C/C=C/C[C@@H](C)OC(=O)C[C@H]1OC(C)=O [josamycin]
group mean, gene DDOST (SpotID 49757, MAA and Josa vs. Clari): 0.96
group mean, gene BCL2L2 (SpotID 49761, MAA and Josa vs. Clari): 0.85
group mean, gene AD022 (SpotID 49767, MAA and Josa vs. Clari): 0.96
mean group, AD022 (SpotID 49767, pooled group mean): 0.96
group mean, gene P4HB (SpotID 49781, MAA and Josa vs. Clari): 0.98
group mean, gene CYC1 (SpotID 49787, MAA and Josa vs. Clari): 1.09
mean group, CYC1 (SpotID 49787, pooled group mean): 1.09
group mean, gene BCL2L2 (SpotID 49794, MAA and Josa vs. Clari): 0.86
mean group, AD022 (SpotID 49800, pooled group mean): 0.97
group mean, gene CDKN2C (SpotID 49815, MAA and Josa vs. Clari): 1.06
group mean, gene CYC1 (SpotID 49820, MAA and Josa vs. Clari): 1.05
group mean, gene LAMP2 (SpotID 49882, MAA and Josa vs. Clari): 0.99
group mean, gene ATP2B4 (SpotID 49915, MAA and Josa vs. Clari): 1.23
mean group, ATP2B4 (SpotID 49915, pooled group mean): 1.23
group mean, gene DHCR24 (SpotID 49922, MAA and Josa vs. Clari): 1.00
group mean, gene KIAA0169 (SpotID 49930, MAA and Josa vs. Clari): 1.03
mean group, RFC1 (SpotID 49947, pooled group mean): 1.05
group mean, gene CCNE2 (SpotID 49967, MAA and Josa vs. Clari): 1.02
group mean, gene BMP6 (SpotID 49981, MAA and Josa vs. Clari): 0.94
group mean, gene VTN (SpotID 49989, MAA and Josa vs. Clari): 1.19
group mean, gene SRC (SpotID 49990, MAA and Josa vs. Clari): 0.99
group mean, gene NFYC (SpotID 50011, MAA and Josa vs. Clari): 1.10
mean group, HIF1A (SpotID 50022, pooled group mean): 1.07
group mean, gene GNB2L1 (SpotID 50049, MAA and Josa vs. Clari): 1.32
mean group, NDUFA2 (SpotID 50050, pooled group mean): 0.90
group mean, gene MBTPS1 (SpotID 50067, MAA and Josa vs. Clari): 0.95
group mean, gene SCOP (SpotID 50079, MAA and Josa vs. Clari): 0.97
mean group, SCOP (SpotID 50079, pooled group mean): 0.97
group mean, gene IDI1 (SpotID 50084, MAA and Josa vs. Clari): 0.90
group mean, SpotID 50085 (gene symbol not given) (SpotID 50085, MAA and Josa vs. Clari): 1.18
group mean, gene CNOT3 (SpotID 50099, MAA and Josa vs. Clari): 0.95
mean group, CNOT3 (SpotID 50099, pooled group mean): 0.95
group mean, gene IRF5 (SpotID 50103, MAA and Josa vs. Clari): 0.87
group mean, gene RRBP1 (SpotID 50135, MAA and Josa vs. Clari): 0.95
group mean, SpotID 50216 (gene symbol not given) (SpotID 50216, MAA and Josa vs. Clari): 0.95
group mean, gene FLJ13868 (SpotID 50222, MAA and Josa vs. Clari): 0.93
group mean, gene HK2 (SpotID 50224, MAA and Josa vs. Clari): 0.95
mean group, IL10RB (SpotID 50267, pooled group mean): 0.98
group mean, gene UQCR (SpotID 50284, MAA and Josa vs. Clari): 0.83
group mean, gene TM7SF2 (SpotID 50294, MAA and Josa vs. Clari): 1.01
group mean, gene CDR2 (SpotID 50302, MAA and Josa vs. Clari): 0.89
group mean, gene MAX (SpotID 50307, MAA and Josa vs. Clari): 0.96
group mean, gene BMP6 (SpotID 50319, MAA and Josa vs. Clari): 0.98
group mean, gene DAD1 (SpotID 50332, MAA and Josa vs. Clari): 1.02
group mean, gene FGFR2 (SpotID 50337, MAA and Josa vs. Clari): 0.93
group mean, gene IKKE (SpotID 50342, MAA and Josa vs. Clari): 0.94
mean group, IKKE (SpotID 50342, pooled group mean): 0.94
group mean, gene LOC51295 (SpotID 50349, MAA and Josa vs. Clari): 1.01
mean group, LOC51295 (SpotID 50349, pooled group mean): 1.01
mean group, CFL1 (SpotID 50351, pooled group mean): 1.16
group mean, gene TFAM (SpotID 50386, MAA and Josa vs. Clari): 1.05
group mean, gene DGCR6L (SpotID 50399, MAA and Josa vs. Clari): 1.02
group mean, gene CHERP (SpotID 50405, MAA and Josa vs. Clari): 1.00
group mean, gene AGPAT1 (SpotID 50412, MAA and Josa vs. Clari): 0.99
mean group, GOCAP1 (SpotID 50421, pooled group mean): 1.01
group mean, gene SIGIRR (SpotID 50452, MAA and Josa vs. Clari): 0.96
group mean, gene MMP15 (SpotID 50464, MAA and Josa vs. Clari): 0.87
group mean, gene CEBPA (SpotID 50474, MAA and Josa vs. Clari): 0.97
mean group, MGP (SpotID 50511, pooled group mean): 0.83
group mean, gene ARHC (SpotID 50513, MAA and Josa vs. Clari): 0.91
mean group, ARHC (SpotID 50513, pooled group mean): 0.91
group mean, gene PRKCBP1 (SpotID 50532, MAA and Josa vs. Clari): 1.07
group mean, gene PTPRT (SpotID 50550, MAA and Josa vs. Clari): 0.92
mean group, BN51T (SpotID 50584, pooled group mean): 0.97
mean group, CKS2 (SpotID 50590, pooled group mean): 0.74
mean group, SpotID 50591 (SpotID 50591 (gene symbol not given), pooled group mean): 1.01
group mean, SpotID 50591 (gene symbol not given) (SpotID 50591, MAA and Josa vs. Clari): 1.01
mean group, SRP19 (SpotID 50601, pooled group mean): 0.95
group mean, gene PDIR (SpotID 50639, MAA and Josa vs. Clari): 0.91
group mean, gene PROS1 (SpotID 50643, MAA and Josa vs. Clari): 0.93
mean group, BET1 (SpotID 50645, pooled group mean): 0.84
group mean, gene COPB2 (SpotID 50654, MAA and Josa vs. Clari): 0.99
group mean, gene MAX (SpotID 50659, MAA and Josa vs. Clari): 0.95
group mean, gene GNB5 (SpotID 50689, MAA and Josa vs. Clari): 1.00
group mean, gene PRKDC (SpotID 50736, MAA and Josa vs. Clari): 1.07
mean group, PRKDC (SpotID 50736, pooled group mean): 1.07
group mean, gene AD022 (SpotID 50738, MAA and Josa vs. Clari): 0.94
mean group, AD022 (SpotID 50738, pooled group mean): 0.94

— patent US20070172957A1, “Methods of identifying anti-inflammatory macrolides” (TAISHO PHARMACEUTICAL CO., LTD., priority 2004, published 2007)
